Data reported in PMC12073402, “A Selective MAP3K1 Inhibitor Facilitates Discovery of NPM1 as a Member of the Network” (Molecules, 2025).

Key:
Assay in all cases: KiNativ kinome profiling in PANC-1 lysate
Format in all cases: binding
[1] = target: T1, ATR (Homo sapiens, UniProt Q13535); conditions: ATP
T1 construct: endogenous in cells; host or cells: PANC-1 cell lysate
Procedure, shortened: (§1)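 PANC-1 lysates were incubated with 5 μM inhibitor or DMSO, then labeled with a desthiobiotin-ATP acyl-phosphate probe that biotinylates conserved kinase lysines. Tryptic peptides were streptavidin-enriched and quantified by LC-MS/MS, reported as % change in MS signal from duplicate treated and duplicate control samples.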

[2] = target: T2, CHK1 (Homo sapiens, UniProt O14757); conditions: Lys2
T2 construct: endogenous in cells; host or cells: PANC-1 cell lysate
Procedure, shortened: as §1

[3] = system: CK1g1, CK1g2, CK1g3; conditions: 5 µM; ATP Loop; KIGCGNFGELR
Procedure, shortened: as §1

[4] = target: T3, CLK1 (Homo sapiens, UniProt P49759); conditions: Lys2
T3 construct: endogenous in cells; host or cells: PANC-1 cell lysate
Procedure, shortened: as §1

[5] = target: T4, CRK7 (Homo sapiens, UniProt Q9NYV4); conditions: Lys2
T4 construct: endogenous in cells; host or cells: PANC-1 cell lysate
Procedure, shortened: as §1

[6] = target: T5, CaMK2d (Homo sapiens, UniProt Q13557); conditions: Lys1
T5 construct: endogenous in cells; host or cells: PANC-1 cell lysate
Procedure, shortened: as §1

[7] = target: T6, DGKH (Homo sapiens, UniProt Q86XP1); conditions: ATP
T6 construct: endogenous in cells; host or cells: PANC-1 lysate
Procedure, shortened: as §1

[8] = target: T7, DNAPK (Homo sapiens, UniProt P78527); conditions: ATP
T7 construct: endogenous in cells; host or cells: PANC-1 lysate
Procedure, shortened: as §1

[9] = system: FYN, SRC, YES; conditions: 5 µM; ATP Loop; QGAKFPIKWTAPEAALYGR
Procedure, shortened: as §1

[10] = target: T8, HCK (Homo sapiens, UniProt P08631)
T8 construct: we opted to conduct a kinome screen (KiNativ) in PANC-1 cell lysates; endogenous in cells; host or cells: PANC-1 cell lysate
T8 sequence (P08631 whole entry): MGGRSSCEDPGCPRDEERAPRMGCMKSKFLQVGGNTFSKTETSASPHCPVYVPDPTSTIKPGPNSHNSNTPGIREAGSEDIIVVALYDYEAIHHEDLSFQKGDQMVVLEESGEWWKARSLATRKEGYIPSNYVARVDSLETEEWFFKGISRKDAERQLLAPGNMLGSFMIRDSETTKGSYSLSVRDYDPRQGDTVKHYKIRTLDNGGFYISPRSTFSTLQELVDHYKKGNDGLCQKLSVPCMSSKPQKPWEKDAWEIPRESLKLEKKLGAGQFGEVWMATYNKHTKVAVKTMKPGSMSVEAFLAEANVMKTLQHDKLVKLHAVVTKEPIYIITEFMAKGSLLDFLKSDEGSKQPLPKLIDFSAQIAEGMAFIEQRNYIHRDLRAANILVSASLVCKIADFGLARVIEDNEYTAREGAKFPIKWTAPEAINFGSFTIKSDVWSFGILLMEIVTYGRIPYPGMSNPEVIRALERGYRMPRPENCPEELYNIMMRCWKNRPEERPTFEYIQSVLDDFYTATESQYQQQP
Procedure, shortened: as §1

[11] = target: T9, MAP4K3 (Homo sapiens, UniProt Q8IVH8)
T9 construct: endogenous in cells; host or cells: PANC-1 cell lysate
T9 sequence (Q8IVH8 whole entry): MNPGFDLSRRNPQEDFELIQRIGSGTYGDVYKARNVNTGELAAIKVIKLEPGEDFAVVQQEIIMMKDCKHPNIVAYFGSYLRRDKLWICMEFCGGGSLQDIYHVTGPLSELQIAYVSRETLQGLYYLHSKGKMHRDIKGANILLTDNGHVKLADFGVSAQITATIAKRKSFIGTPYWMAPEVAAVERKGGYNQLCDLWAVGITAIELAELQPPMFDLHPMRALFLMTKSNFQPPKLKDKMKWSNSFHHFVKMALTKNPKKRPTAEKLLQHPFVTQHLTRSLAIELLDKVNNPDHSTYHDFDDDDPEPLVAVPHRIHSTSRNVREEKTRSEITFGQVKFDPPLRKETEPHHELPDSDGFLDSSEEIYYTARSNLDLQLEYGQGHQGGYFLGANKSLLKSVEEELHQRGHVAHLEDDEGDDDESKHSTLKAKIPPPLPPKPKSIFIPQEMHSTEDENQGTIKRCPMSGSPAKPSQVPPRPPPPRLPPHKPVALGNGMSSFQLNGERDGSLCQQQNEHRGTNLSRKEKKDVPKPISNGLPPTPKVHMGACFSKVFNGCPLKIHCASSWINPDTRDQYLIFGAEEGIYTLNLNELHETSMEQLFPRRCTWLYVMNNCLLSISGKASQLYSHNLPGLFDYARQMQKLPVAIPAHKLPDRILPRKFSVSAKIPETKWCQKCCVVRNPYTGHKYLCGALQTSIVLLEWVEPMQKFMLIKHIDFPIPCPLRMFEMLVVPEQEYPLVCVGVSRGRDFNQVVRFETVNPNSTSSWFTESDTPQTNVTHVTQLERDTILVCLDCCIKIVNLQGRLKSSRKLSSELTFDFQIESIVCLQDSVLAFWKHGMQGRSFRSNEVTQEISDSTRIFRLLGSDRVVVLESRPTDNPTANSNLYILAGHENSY
Procedure, shortened: as §1

[12] = target: T10, MAST3 (Homo sapiens, UniProt O60307); conditions: Lys2
T10 construct: endogenous in cells; host or cells: PANC-1
T10 sequence (O60307 whole entry): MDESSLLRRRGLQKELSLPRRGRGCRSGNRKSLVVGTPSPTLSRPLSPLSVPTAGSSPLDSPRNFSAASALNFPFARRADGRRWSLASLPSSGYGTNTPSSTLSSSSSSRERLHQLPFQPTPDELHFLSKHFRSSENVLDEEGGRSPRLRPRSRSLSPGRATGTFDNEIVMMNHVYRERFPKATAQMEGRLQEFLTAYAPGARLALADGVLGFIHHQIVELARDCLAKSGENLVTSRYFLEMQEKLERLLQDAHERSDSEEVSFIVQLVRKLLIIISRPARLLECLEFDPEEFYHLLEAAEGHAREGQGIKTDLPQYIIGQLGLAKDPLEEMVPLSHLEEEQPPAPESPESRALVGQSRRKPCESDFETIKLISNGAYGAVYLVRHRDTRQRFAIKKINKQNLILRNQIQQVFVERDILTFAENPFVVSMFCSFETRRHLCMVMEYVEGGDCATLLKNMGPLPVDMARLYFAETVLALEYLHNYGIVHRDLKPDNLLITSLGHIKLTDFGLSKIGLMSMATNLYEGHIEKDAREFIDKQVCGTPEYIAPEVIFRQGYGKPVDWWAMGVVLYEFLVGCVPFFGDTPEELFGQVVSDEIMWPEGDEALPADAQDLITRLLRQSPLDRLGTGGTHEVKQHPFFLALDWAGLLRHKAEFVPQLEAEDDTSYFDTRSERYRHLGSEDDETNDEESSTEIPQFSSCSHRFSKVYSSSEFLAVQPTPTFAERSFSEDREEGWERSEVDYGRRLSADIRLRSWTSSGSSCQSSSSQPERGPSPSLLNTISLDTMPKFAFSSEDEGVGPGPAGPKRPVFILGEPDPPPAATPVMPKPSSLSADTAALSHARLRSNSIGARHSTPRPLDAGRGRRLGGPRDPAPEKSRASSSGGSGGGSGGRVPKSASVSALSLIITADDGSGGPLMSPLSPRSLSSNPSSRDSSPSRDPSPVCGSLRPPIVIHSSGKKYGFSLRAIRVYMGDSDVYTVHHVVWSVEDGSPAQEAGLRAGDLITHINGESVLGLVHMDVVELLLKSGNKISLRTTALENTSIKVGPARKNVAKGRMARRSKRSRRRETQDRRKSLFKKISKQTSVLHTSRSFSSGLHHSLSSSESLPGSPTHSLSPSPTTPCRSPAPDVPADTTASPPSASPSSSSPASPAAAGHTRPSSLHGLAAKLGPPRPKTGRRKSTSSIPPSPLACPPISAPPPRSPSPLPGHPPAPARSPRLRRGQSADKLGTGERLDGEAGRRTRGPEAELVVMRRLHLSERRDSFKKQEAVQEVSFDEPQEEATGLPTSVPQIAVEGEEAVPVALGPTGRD
Procedure, shortened: as §1

[13] = target: T11, MLK1 (Homo sapiens, UniProt P80192); conditions: Lys2
T11 construct: endogenous in cells; host or cells: PANC-1
Procedure, shortened: as §1

[14] = target: T12, MST2 (Homo sapiens, UniProt Q13188); conditions: Lys1
T12 construct: endogenous in cells; host or cells: PANC-1
T12 sequence (Q13188 whole entry): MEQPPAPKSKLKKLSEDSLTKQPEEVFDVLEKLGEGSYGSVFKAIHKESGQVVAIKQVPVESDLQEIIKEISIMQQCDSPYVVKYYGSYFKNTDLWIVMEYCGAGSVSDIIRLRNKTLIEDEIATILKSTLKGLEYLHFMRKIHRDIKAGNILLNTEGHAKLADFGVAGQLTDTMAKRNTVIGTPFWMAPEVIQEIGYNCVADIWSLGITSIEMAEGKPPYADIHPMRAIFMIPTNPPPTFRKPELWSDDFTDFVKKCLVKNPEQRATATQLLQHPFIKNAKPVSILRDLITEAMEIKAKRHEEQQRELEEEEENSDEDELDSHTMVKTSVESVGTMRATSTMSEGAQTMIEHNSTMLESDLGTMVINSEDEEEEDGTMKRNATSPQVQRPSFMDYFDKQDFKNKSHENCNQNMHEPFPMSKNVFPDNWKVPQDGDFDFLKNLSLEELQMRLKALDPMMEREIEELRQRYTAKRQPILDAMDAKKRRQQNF
Procedure, shortened: as §1

[15] = system: NDR1, NDR2; conditions: 5 µM; ATP Loop; LSDFGLCTGLKK
Procedure, shortened: as §1

[16] = target: T13, NEK2 (Homo sapiens, UniProt P51955); conditions: Lys2
T13 construct: endogenous in cells; host or cells: PANC-1 cell lysate
Procedure, shortened: as §1

[17] = target: T14, NEK3 (Homo sapiens, UniProt P51956); conditions: ATP Loop
T14 construct: endogenous in cells; host or cells: PANC-1 cell lysate
T14 sequence (P51956 whole entry): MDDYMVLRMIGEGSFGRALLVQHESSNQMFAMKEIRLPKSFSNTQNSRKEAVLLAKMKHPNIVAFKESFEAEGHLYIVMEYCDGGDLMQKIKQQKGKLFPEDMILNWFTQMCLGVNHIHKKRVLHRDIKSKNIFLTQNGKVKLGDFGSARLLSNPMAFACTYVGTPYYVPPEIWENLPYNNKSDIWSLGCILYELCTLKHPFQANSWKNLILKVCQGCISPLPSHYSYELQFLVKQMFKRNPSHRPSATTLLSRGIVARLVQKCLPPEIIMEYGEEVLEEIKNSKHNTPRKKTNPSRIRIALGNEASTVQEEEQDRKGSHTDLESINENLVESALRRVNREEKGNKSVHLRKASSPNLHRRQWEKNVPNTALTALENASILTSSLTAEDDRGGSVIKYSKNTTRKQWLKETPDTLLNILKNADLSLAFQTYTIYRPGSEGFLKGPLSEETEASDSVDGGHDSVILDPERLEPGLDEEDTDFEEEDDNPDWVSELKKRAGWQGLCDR
Procedure, shortened: as §1

[18] = target: T15, NEK7 (Homo sapiens, UniProt Q8TDX7); conditions: Lys1
T15 construct: endogenous in cells; host or cells: PANC-1 cell lysate
Procedure, shortened: as §1

[19] = target: T16, PCTAIRE1 (Homo sapiens, UniProt Q00536); conditions: Lys1
T16 construct: endogenous in cells; host or cells: PANC-1 cell lysate
Procedure, shortened: as §1

[20] = target: T17, PCTAIRE2 (Homo sapiens, UniProt Q00537); conditions: Lys2
T17 construct: endogenous in cells; host or cells: PANC-1 cell lysate
Procedure, shortened: as §1

[21] = target: T18, PHKg2 (Homo sapiens, UniProt P15735); conditions: Lys1
T18 construct: endogenous in cells; host or cells: PANC-1 cell lysate
T18 sequence (P15735 whole entry): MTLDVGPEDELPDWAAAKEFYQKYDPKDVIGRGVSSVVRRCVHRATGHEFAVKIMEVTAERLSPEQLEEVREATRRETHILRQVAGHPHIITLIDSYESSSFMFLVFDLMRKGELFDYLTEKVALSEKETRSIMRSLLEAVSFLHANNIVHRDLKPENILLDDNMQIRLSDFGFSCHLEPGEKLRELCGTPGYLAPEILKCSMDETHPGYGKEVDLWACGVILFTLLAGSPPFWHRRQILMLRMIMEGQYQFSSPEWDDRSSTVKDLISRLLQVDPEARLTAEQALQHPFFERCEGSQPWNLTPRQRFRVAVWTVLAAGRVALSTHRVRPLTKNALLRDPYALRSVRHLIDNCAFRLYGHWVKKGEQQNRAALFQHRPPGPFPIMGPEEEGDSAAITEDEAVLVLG
Procedure, shortened: as §1

[22] = target: T19, PKCd (Homo sapiens, UniProt Q05655)
T19 construct: endogenous in cells; host or cells: PANC-1 cell lysate
T19 sequence (Q05655 whole entry): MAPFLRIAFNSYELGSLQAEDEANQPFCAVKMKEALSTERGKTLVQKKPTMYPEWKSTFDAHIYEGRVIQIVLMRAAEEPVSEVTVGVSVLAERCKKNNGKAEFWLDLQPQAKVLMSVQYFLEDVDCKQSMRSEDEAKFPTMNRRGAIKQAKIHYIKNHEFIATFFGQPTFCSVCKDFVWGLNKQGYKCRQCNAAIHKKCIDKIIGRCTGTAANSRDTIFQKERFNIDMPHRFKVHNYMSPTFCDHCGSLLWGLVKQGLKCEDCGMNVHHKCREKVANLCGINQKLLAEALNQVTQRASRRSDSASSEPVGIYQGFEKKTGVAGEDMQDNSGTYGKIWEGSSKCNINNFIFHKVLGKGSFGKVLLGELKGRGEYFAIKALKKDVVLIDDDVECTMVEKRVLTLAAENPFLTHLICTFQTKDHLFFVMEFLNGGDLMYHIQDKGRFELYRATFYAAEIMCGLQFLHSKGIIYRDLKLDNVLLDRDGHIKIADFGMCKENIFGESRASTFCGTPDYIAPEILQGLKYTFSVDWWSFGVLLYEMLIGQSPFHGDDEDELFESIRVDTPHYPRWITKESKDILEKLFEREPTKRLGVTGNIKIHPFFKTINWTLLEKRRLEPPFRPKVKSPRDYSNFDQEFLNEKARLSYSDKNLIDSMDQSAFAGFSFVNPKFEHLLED
Procedure, shortened: as §1

[23] = target: T20, PKD1 (Homo sapiens, UniProt Q15139); conditions: Lys1
T20 construct: endogenous in cells; host or cells: PANC-1 cell lysate
Procedure, shortened: as §1

[24] = system: PKD1, PKD2; conditions: 5 µM; Lys2; NIVHCDLKPENVLLASADPFPQVK
Procedure, shortened: as §1

[25] = target: T21, SRPK1 (Homo sapiens, UniProt Q96SB4); conditions: Lys2
T21 construct: endogenous in cells; host or cells: PANC-1 cell lysate
Procedure, shortened: as §1

[26] = target: T22, ZC1/HGK (Homo sapiens, UniProt O95819); conditions: Lys1
T22 construct: endogenous in cells; host or cells: PANC-1 cell lysate
Procedure, shortened: as §1

[27] = target: T23, eEF2K (Homo sapiens, UniProt O00418); conditions: ATP
T23 construct: endogenous in cells; host or cells: PANC-1 lysate
Procedure, shortened: as §1

## Cn1cc(-c2cnc3ccc(NC(=O)Nc4ccc(F)c(C(F)(F)F)c4)cc3n2)cn1 [51-106, 1-(4-Fluoro-3-(trifluoromethyl)phenyl)-3-(3-(1-methyl-1H-pyrazol-4-yl)quinoxalin-6-yl)urea]
[1]
  inhibition at 5 µM: 2.2%
[2]
  inhibition at 5 µM: ≤ 0%
[3]
  % Inhibition: 11.7%
[4]
  inhibition at 5 µM: 0.5%
[5]
  inhibition at 5 µM: 14.3%
[6]
  inhibition at 5 µM: ≤ 0%
[7]
  inhibition at 5 µM: ≤ 0%
[8]; 5 µM, EHPFLVKGGEDLR
  % Inhibition: NB (NB = No Binding (≤ 0))
[8]; […]
  inhibition at 5 µM: ≤ 0%
[9]
  % Inhibition: 14.0%
[10]; 5 µM, ATP Loop, EGAKFPIKWTAPEAINFGSFTIK
  % Inhibition: NB (NB = No Binding (≤ 0))
[10]; Lys1, […]
  inhibition at 5 µM: ≤ 0%
[11]; Lys1, NVNTGELAAIKVIK
  inhibition at 5 µM: 4.7%
[11]; Lys2, DIKGANILLTDNGHVK
  inhibition at 5 µM: ≤ 0%
[12]
  inhibition at 5 µM: ≤ 0%
[13]
  inhibition at 5 µM: 1.5%
[14]
  inhibition at 5 µM: 0.8%
[15]
  % Inhibition: NB (NB = No Binding (≤ 0))
[16]
  inhibition at 5 µM: ≤ 0%
[17]
  inhibition at 5 µM: 5.1%
[18]
  inhibition at 5 µM: 10.3%
[19]
  inhibition at 5 µM: ≤ 0%
[20]
  inhibition at 5 µM: 9.7%
[21]
  inhibition at 5 µM: ≤ 0%
[22]; Lys2, DLKLDNVLLDR
  inhibition at 5 µM: 0.4%
[22]; Other, KPTMYPEWK
  inhibition at 5 µM: ≤ 0%
[23]
  inhibition at 5 µM: ≤ 0%
[24]
  % Inhibition: NB (NB = No Binding (≤ 0))
[25]
  inhibition at 5 µM: 4.4%
[26]
  inhibition at 5 µM: 3.1%
[27]
  inhibition at 5 µM: 6.3%
